For 13 compounds, TGI results are on record in PubChem BioAssay (NCI).

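All cell lines were grown in 96-well plates and treated with compound for 48 hours. TGI: concentration producing complete growth inhibition.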

Among the test systems are HCC-2998 colon; OVCAR-3 ovarian; CAKI-1 renal; IGROV1 ovarian; NCI-H460 lung; MCF7 breast; K-562 leukemia; UO-31 renal; RXF 393 renal; KM12 colon.
Common to all, as to experiment: NCI anticancer screen, dose series, 48 h

Consider `O=C(O)CN(CC(=O)O)C(C(=O)O)c1ccccc1` (configuration not stated), for which the TGI with HCC-2998 colon, in the test on OVCAR-3 ovarian, in the test with CAKI-1 renal, in the test on IGROV1 ovarian, in the test on NCI-H460 lung and in the test with MCF7 breast was more than 100 µM each time. For the same compound, the TGI with K-562 leukemia, in the test on UO-31 renal, in the test on RXF 393 renal and in the test with KM12 colon was more than 100 µM throughout.

As for `CC(C)=CCC[C@@H](C)C1=C(O)C(N)=C(C)C(=O)C1=O`, the TGI in the test on HCC-2998 colon was more than 100 µM; in the test on OVCAR-3 ovarian, more than 100 µM; in the test on CAKI-1 renal it was more than 83.6 µM; in the test on IGROV1 ovarian, more than 40.2 µM; in the test on NCI-H460 lung, more than 100 µM; in the test on MCF7 breast, more than 100 µM. Also, the TGI was more than 100 µM in the test with K-562 leukemia, more than 71.1 µM in the test with UO-31 renal, more than 100 µM in the test with RXF 393 renal and more than 100 µM in the test with KM12 colon.

Take `O=[N+]([O-])c1cc(Cl)ccc1Sc1ccccc1`: the TGI in the test with HCC-2998 colon, with OVCAR-3 ovarian, in the test on CAKI-1 renal, in the test with IGROV1 ovarian, in the test on NCI-H460 lung and in the test on MCF7 breast was more than 100 µM in each case. For the same compound, the TGI in the test on K-562 leukemia, in the test with UO-31 renal, in the test on RXF 393 renal and in the test on KM12 colon was more than 100 µM throughout.

Consider `CC(C)/C(Cl)=N/OC(=O)Nc1ccc(OC(F)(F)F)cc1`, for which the TGI in the test on HCC-2998 colon is 30.5 µM; in the test on OVCAR-3 ovarian, 32.6 µM; in the test on CAKI-1 renal it was 9.55 µM; with IGROV1 ovarian, 30.5 µM; in the test on NCI-H460 lung, 31.2 µM; in the test with MCF7 breast it was 28 µM. In addition, the TGI in the test on K-562 leukemia amounted to 4.15 µM; in the test with UO-31 renal, 23.8 µM; in the test on RXF 393 renal, 18.3 µM; in the test with KM12 colon it was 30.3 µM.

As to `N#Cc1c(-c2ccccc2)c2c([nH]c1=O)-c1cc([N+](=O)[O-])ccc1CCC2`, the TGI was 48.2 µM in the test with HCC-2998 colon; 45 µM in the test with OVCAR-3 ovarian; more than 100 µM in the test with CAKI-1 renal; more than 100 µM in the test on IGROV1 ovarian; more than 100 µM with NCI-H460 lung; 71.8 µM with MCF7 breast. The TGI was more than 100 µM in the test with K-562 leukemia, more than 100 µM in the test with UO-31 renal, 42.3 µM in the test on RXF 393 renal and more than 100 µM with KM12 colon.

With `CCOC(=O)C1=CC(C)(C(=O)OCC)Nc2c(nc(N)[nH]c2=O)N1` (configuration not stated), the TGI with HCC-2998 colon, in the test on OVCAR-3 ovarian, in the test on CAKI-1 renal, in the test on IGROV1 ovarian, with NCI-H460 lung and with MCF7 breast was more than 10 µM each time. The TGI in the test with K-562 leukemia, in the test with UO-31 renal, in the test with RXF 393 renal and in the test with KM12 colon was more than 10 µM in each case.

Regarding `CC1(C)N=C2C(=O)c3c([nH]c4ccccc34)[C@]3(C)CCC1CC23` (some centres not stated), the TGI in the test with HCC-2998 colon, with OVCAR-3 ovarian, in the test with CAKI-1 renal, in the test on IGROV1 ovarian, in the test with NCI-H460 lung and in the test on MCF7 breast was more than 6.25 µM in each case. The TGI with K-562 leukemia, with UO-31 renal, in the test on RXF 393 renal and in the test on KM12 colon was more than 6.25 µM each time.

As for `CCOC(=O)c1ccc(Nc2nc3ccc(C(F)(F)F)cc3nc2C(=O)OCC)cc1`, the TGI in the test on HCC-2998 colon, in the test with OVCAR-3 ovarian, with CAKI-1 renal, in the test with IGROV1 ovarian, in the test on NCI-H460 lung and with MCF7 breast was more than 100 µM in each case. For the same compound, the TGI in the test with K-562 leukemia, in the test on UO-31 renal, in the test on RXF 393 renal and with KM12 colon was more than 100 µM each time.

As for `Cc1cc(C)nc(NS(=O)(=O)c2ccc(NC(=O)c3cccc4c(NNc5ccc(S(=O)(=O)N=C(N)N)cc5)c5ccccc5nc34)cc2)n1`, the TGI in the test with HCC-2998 colon, in the test on OVCAR-3 ovarian, in the test on CAKI-1 renal, with IGROV1 ovarian, with NCI-H460 lung and with MCF7 breast was more than 50 µM throughout. For the same compound, the TGI in the test on K-562 leukemia, with UO-31 renal, in the test on RXF 393 renal and in the test with KM12 colon was more than 50 µM each time.

For `CCN1C(=O)C(=C/C=C/c2ccc(N(CC)CC)cc2)C(=O)N(CC)C1=S`, the TGI with HCC-2998 colon is more than 100 µM; with OVCAR-3 ovarian, 54.9 µM; in the test with CAKI-1 renal, more than 100 µM; in the test with IGROV1 ovarian, more than 100 µM; in the test on NCI-H460 lung it was more than 100 µM; in the test with MCF7 breast, more than 100 µM. Also, the TGI with K-562 leukemia, in the test on UO-31 renal, with RXF 393 renal and with KM12 colon was more than 100 µM in each case.

Turning to `COc1ccc(NC(C)c2ccncc2)cc1` (configuration not stated), the TGI in the test on HCC-2998 colon, in the test with OVCAR-3 ovarian, with CAKI-1 renal, with NCI-H460 lung, in the test with MCF7 breast and in the test on K-562 leukemia was more than 100 µM throughout. Also, the TGI in the test on UO-31 renal, in the test with RXF 393 renal and in the test with KM12 colon was more than 100 µM in each case.

`CCN(CCCl)c1cc(CN(C)C)cc(NC(=O)c2ccc(C(=O)Nc3cccc(CN(C)C)c3)cc2)c1`: the TGI with HCC-2998 colon was 3.05 µM; with CAKI-1 renal it was more than 100 µM; with IGROV1 ovarian, 10 µM; with NCI-H460 lung it was 10.6 µM; in the test with MCF7 breast, 1 µM; in the test with K-562 leukemia, 1.42 µM. Further, the results for the TGI with UO-31 renal, in the test on RXF 393 renal and with KM12 colon were 76.3 µM, 0.82 µM and 3.69 µM, respectively.

For `COC(=O)N1N=C(c2ccccc2)C1c1ccccc1` (configuration not stated), the TGI is more than 100 µM with HCC-2998 colon; more than 100 µM in the test with OVCAR-3 ovarian; more than 100 µM in the test on CAKI-1 renal; more than 100 µM with NCI-H460 lung; more than 100 µM with MCF7 breast; 72.7 µM in the test on K-562 leukemia. Besides, the figures for the TGI in the test with UO-31 renal, in the test with RXF 393 renal and in the test with KM12 colon were 52.9 µM, more than 100 µM and more than 100 µM, respectively.
